Experimental data published in a melting point compilation (Tetko et al.).

| Structure (SMILES) | melting point [°C] |
| --- | --- |
| Brc1cncc(-c2nnn[nH]2)c1 | 226 |
| C=C(C(=O)OC1CC(C)=CCCC(CO)=CC2OC(=O)C(=C)C21)C(O)CO (centres undefined) | 143 |
| CC(C)(C)c1cc(CC(=O)O)cc(C(C)(C)C)c1O | 157 to 158 |
| OCc1ccc(N2CCCC2)nc1 | 61 to 62 |
| CC(C)=CCCC(C)=CC=CC(C)=CC=CC(C)=CC=CC=C(C)C=CC=C(C)C=CC=C(C)CCC=C(C)C | 175 |
| CCOC(=O)N1CCN(C(=O)OCC)CC1 | 47 |
| CC12CCC(C(COC(=O)c3ccc([N+](=O)[O-])cc3)C1)C2(C)C (centres undefined) | 100 |
| O=C1CN=C(c2ccccc2)c2cc([N+](=O)[O-])ccc2N1 | 225 |
| CNC(=O)C=C(C)OP(=O)(OC)OC | 55 |
| O=C(O)/C=C/c1ccc(I)o1 | 145 |
| O=C1NC(=O)C(Cc2cccc(CC3C(=O)NC(=O)NC3=O)c2)C(=O)N1 | 272 |
| CC1=CC(=C(C#N)C#N)C=C(C=Cc2ccc(N(C)C)cc2)O1 | 212 |
| Fc1ccc(S)cc1F | 34 to 38 |
| O=[N+]([O-])c1ccc(N2CCNCC2)c(Cl)c1 | 105 to 106 |
| CC(C)CC=O | -51 |
| CN(C)c1ccccc1-c1ccccc1P(C1CCCCC1)C1CCCCC1 | 123 |
| CC(CC(=O)OOC(C)(C)C)CC(C)(C)C (centres undefined) | -30 |
| CNC(=O)ON=C1C(Cl)C2CC(C#N)C1C2 (centres undefined) | 144 |
| Oc1ccnc(S)n1 | 300 |
| CC1(C)C(=O)OOC1=O | 44 to 45 |
| Clc1cc2c(cc1Cl)-c1cc(Cl)c(Cl)cc1-2 | 237 to 240 |
| Brc1ccc(Oc2ccc(Br)c(Br)c2Br)c(Br)c1Br | 183 |
| CCCCCCCCCCCCCOCC1CO1 (centres undefined) | 1.6 |
| O=C1N[C@H]2[C@H](CS[C@H]2CCCCC(=O)ON2C(=O)CCC2=O)N1 | 212 |
| CCCCOc1c(-c2nnc(-c3ccc(Cl)cc3)o2)sc(-c2nnc(-c3ccc(Cl)cc3)o2)c1OCCCC | 178 |
| CC(C)(C)OC(=O)N1CCC(C#N)CC1 | 47 |
| O=C(O)c1cc(F)c(F)c(Br)c1F | 123 |

| Structure (SMILES) | melting point [°C] |
| --- | --- |
| CCCOC(N)=O | 60 |
| Brc1cc(Br)c(Br)c(Br)c1Br | 160 |
| OCCN(CCO)c1ccccc1 | 57 |
| O=[N+]([O-])CC(Nc1ccccc1)c1cccc(C(C[N+](=O)[O-])Nc2ccccc2)c1 (centres undefined) | 127 |
| CNc1ccc(C#N)cc1N | 139 to 142 |
| CCOC(=O)c1c(NC(=O)C(Cl)Cl)sc2c1CCCC2 | 120 to 122 |
| CCCCCCCCCC(=O)CCCCCCCCC | 65.5 |
| CCOC(=O)c1sc(Br)nc1C | 65 to 66 |
| CC(COc1ccc(C(C)(C)C)cc1)OS(=O)OCCCl (centres undefined) | -31.7 |
| O=C(CCl)c1ccc(Cl)cc1Cl | 54 |
| C=C1C(=O)C23C(OC(C)=O)CC4C5(C)CCCC4(C(OC)OC5)C2C(OC(C)=O)CC1C3OC(C)=O (centres undefined) | 71 |
| COc1ccc(C(=O)O)c(Cl)c1OC | 193 to 196 |
| CC(Cl)C(N)=O (centres undefined) | 76 to 81 |
| FC(F)(F)c1cc(C(F)(F)F)[nH]n1 | 82 to 84 |
| Nc1cc(N)c(/C=C/c2ccccc2)cc1/C=C/c1ccccc1 | 201 |
| OCC1OC(OCC2OC(O)(CO)C(O)C2O)C(O)C(O)C1O (centres undefined) | 125 to 128 |
| O=C(O)c1cccc(N2CCOCC2)n1 | 127 to 129 |
| Nc1[nH]c(=O)[nH]c(=O)c1N=O | 280 |
| NNC(=O)c1ccc(Cl)c(Br)c1 | 165 to 168 |
| COC(=O)C(C#N)=C(SC)SC | 85 to 87 |
| C=C(C)C(=O)OCCCCCCCCCCCC | -7 |
| C=C(C)CCCCC | -90 |
| CCSC1=NN=C(SCC)NN1 | 123 to 125 |
| O=C(O)C=Cc1c[nH]cn1 | 225 |
| O=C1C=CC(=O)c2c(O)cccc21 | 162 |
| O=C(O)c1cc(-c2cccs2)[nH]n1 | 229 to 232 |
| Fc1ccc(C=Nc2n[nH]c(N=Cc3ccc(F)cc3)c2Cc2ccc(Cl)cc2)cc1 | 223 to 225 |

| Structure (SMILES) | melting point [°C] |
| --- | --- |
| N#Cc1ccc(C=NNC(N)=S)cc1 | 243 to 247 |
| CCC(C(=O)NC(N)=O)c1ccccc1 (centres undefined) | 162 |
| Cc1c(Br)cc(C(=O)Cl)c(C)c1C | 60 to 62 |
| CNC(=C[N+](=O)[O-])OC | 116 to 120 |
| Cc1nc(S(=O)(=O)Cl)cn1C | 91 to 94 |
| Clc1nc(Br)[nH]c1Cl | 215 to 216 |
| CC(C)(C)OC(=O)N1CC(O)C1 | 40 |
| NCC(=O)NO | 156 |
| c1ccc(N=NNc2ccccc2)cc1 | 98 |
| CCn1cc(C(=O)O)c(=O)c2cnc(N3CCNCC3)nc21 | 254 |
| CCc1ccc(O)c(C(C)=O)c1O | 130 to 131 |
| NCCCNCCO | 15 to 19 |
| O=C(O)c1ccc(C(F)(F)F)nc1 | 192 |
| O=C1CC[C@H](C(=O)O)O1 | 69 to 72 |
| Clc1nccc2occc12 | 41 to 42 |
| OCc1ccccc1CN1CCOCC1 | 59 |
| Cc1cccc2c1CC(C(=O)O)N(C(=O)OC(C)(C)C)C2 (racemic) | 142 to 144 |
| C=CCC1(C(C)C)C(=O)NC(=O)N(C)C1=O (centres undefined) | 56.5 |
| c1ccc2nncnc2c1 | 75.8 |
| OCCN(CCO)C(CO)(CO)CO | 104 |
| C=CCOC(=O)OCCOCCOC(=O)OCC=C | -4 |
| O=[N+]([O-])c1cccc2scc(Br)c12 | 120 to 122 |
| CC(C)(C)OC(=O)N[C@]1(C(=O)O)C[C@@H]1c1ccccc1 | 180 to 182 |
| CC(C)(C)OC(=O)n1cccc1C=O | 51 |
| COc1ccc(N)cc1OC | 88 |

Now from value to compound:

| melting point [°C] | Structure (SMILES) |
| --- | --- |
| 150 | c1ccc(C2=NN(c3ccccc3)CN2c2ccccc2)cc1 |
| 150 to 155 | O=Cc1ccc(-c2ccc(Br)cc2)o1 |
| 262 to 264 | Cc1nc(-c2ccc(C(=O)O)cc2)no1 |
| 143 to 147 | Cc1nc(-c2ccccc2)c(CO)s1 |
| 33 to 38 | C[Si](C)(c1ccccc1)[Si](C)(C)c1ccccc1 |
| 300 | Cn1c(=O)c(C2=NNC(=O)C2=NNc2ccc([N+](=O)[O-])cc2)c(O)c2ccccc21 |
| 132 | OC1OCC(Cc2ccc3c(c2)OCO3)C1Cc1ccc2c(c1)OCO2 (centres undefined) |
| 54 | Cc1nc(-c2ccccc2)cs1 |
| 58 to 59 | Cc1nn(-c2ccccc2)c(C)c1C(=O)Cl |
| 191 | CC1=C(C(=O)OC(C)C)C(c2ccco2)NC(=S)N1 (centres undefined) |
| 118 to 119 | N#CCc1ccc(Oc2ccc([N+](=O)[O-])cn2)cc1 |
| 250 | O=C1c2ccccc2C(=O)C1(O)O |
| 72 to 75 | Cc1oc(-c2ccccc2)nc1CCO |
| 36 | C=Cc1ccc(C(=O)OC)cc1 |
| 62 | CC(=O)Oc1ccc(O)cc1 |
| 290 | Cn1c(=O)c(C2=NNC(=O)C2=Cc2cccc(O)c2)c(O)c2ccccc21 |
| 86 | COc1ccc(-n2ncc(C(=O)Cl)c2C)cc1 |
| 274 | O=C1NN=C(C(F)(F)F)C1=NNc1ccccc1C(=O)O |
| 119 to 120 | COC(=O)c1sc(C(F)(F)F)c(-c2ccccc2)c1N |
| 200 | Nc1cc(-c2ccccc2)ccc1O |
| 169 | Cc1ccc(-c2cc(-c3ccccn3)nc(-c3ccccn3)c2)cc1 |
| 32 | CCCCCCCCc1ccc(C(Cl)=Cc2ccc(OCC)cc2)cc1 |
| 104 to 106 | c1ccc(-c2cnc(-c3cccc4ccccc34)o2)cc1 |
| 142 | Cc1n[nH]cc1-c1ccccc1 |
| 125 to 128 | O=C(O)C1COc2ccccc2O1 (centres undefined) |

| melting point [°C] | Structure (SMILES) |
| --- | --- |
| 158 | CCOC(=O)C1=C(C)NC(C)=C(C(=O)OC)C1c1cccc([N+](=O)[O-])c1 (centres undefined) |
| 193 | Cc1nc(NS(=O)(=O)c2ccc(N)cc2)oc1C |
| 78 to 79 | COC(=O)c1ccc(Oc2cccnc2)o1 |
| 152 to 157 | Nc1ccc2c(c1)C(=O)c1ccccc1-2 |
| 190 to 193 | O=C(O)c1ccccc1-n1cccn1 |
| 129 | Cc1c(C)c2c3ccccc3ccc2c2ccccc12 |
| 102 | N#C/C(=C\c1ccccc1Cl)c1nc(-c2cccs2)cs1 |
| 164 to 165 | CCOC(=O)c1c(NC(=O)Nc2cccc(Cl)c2)sc2c1CCCC2 |
| 180 | O=C(c1ccc(O)cc1)c1ccc(Cl)cc1 |
| 232 to 234 | Cc1nccn1-c1ccccc1C(=O)O |
| 143 | Cc1ccc(-c2ccc(/C=C/C(=O)c3ccc(C)o3)o2)cc1 |
| 110 | COc1ccc(-c2occ(C(=O)c3ccccc3)c2S(=O)(=O)c2ccccc2)cc1 |
| 129 | COc1ccc(C(O)C(O)c2ccccc2)cc1 (centres undefined) |
| 252 to 253 | O=C1CCC(c2ccc(NC(=O)C(Cl)Cl)cc2)=NN1 |
| 280 | O=C1CN(N=Cc2ccc(-c3ccc([N+](=O)[O-])cc3)o2)C(=O)N1 |
| 215 | COc1cnc(NS(=O)(=O)c2ccc(N)cc2)nc1 |
| 210 to 213 | Cc1cccc(Oc2ncccc2[N+](=O)[O-])c1C |
| 121 to 123 | Cc1nnc(SCc2ccccc2)n1N=Cc1ccccc1Cl |
| 133 | COc1ccc2c(c1)CCC(C(=O)O)C2C (centres undefined) |
| 192 to 196 | Cn1c(=O)[nH]c2ccccc21 |
| 137 | COc1ccc(N2C(=O)C3ON=C(C(=O)c4ccco4)C3C2=O)cc1 (centres undefined) |
| 118 | FC(F)(F)N=C1SC(=Nc2ccccc2)N(c2ccccc2)C1=NC(F)(F)F |
| 194 to 196 | CC(=O)Oc1ccc2c(c1)c(OC(C)=O)c(-c1ccccc1)n2OC(C)=O |
| 235 to 236 | Oc1cc(Cl)c(-c2ccccc2)nn1 |
| 294 | Cc1ccccc1Nc1[nH]c(=S)nnc1-c1ccccc1 |
